# Data reported in the supplement of paper PMC10307832.
# Experiments:
# Experiment in all cases: relative viability (nuclei count vs DMSO), 5 days (fraction); higher = more cells survive
# [1] = compound: NS(=O)(=O)OC[C@@H]1C[C@@H](n2ccc3c(N[C@H]4CCc5ccccc54)ncnc32)C[C@@H]1O [MLN4924] + O=C(c1cc(Cc2n[nH]c(=O)c3ccccc23)ccc1F)N1CCN(C(=O)C2CC2)CC1 [Olaparib] (partner 8 µM)
# Procedure, shortened: (§1)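 Medians of duplicate plates are given as relative viability. That measure is the nuclei count in treated wells divided by the count in vehicle wells. Counts were taken on 4× images of lung cancer cell lines in 1536-well plates, 5 days after pin-tool dosing the day after seeding with one drug alone or a fixed anchor-drug dose plus five library-drug doses (not always all listed) in √10 steps.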
# [2] = compound: NS(=O)(=O)OC[C@@H]1C[C@@H](n2ccc3c(N[C@H]4CCc5ccccc54)ncnc32)C[C@@H]1O [MLN4924] + N=C(N)NC(=N)NCCc1ccccc1 [Phenformin] (partner 250 µM)
# Procedure, shortened: as §1
# [3] = compound: NS(=O)(=O)OC[C@@H]1C[C@@H](n2ccc3c(N[C@H]4CCc5ccccc54)ncnc32)C[C@@H]1O [MLN4924] + CC1(C)CCC(c2ccc(Cl)cc2)=C(CN2CCN(c3ccc(C(=O)NS(=O)(=O)c4ccc(N[C@H](CCN5CCOCC5)CSc5ccccc5)c(S(=O)(=O)C(F)(F)F)c4)cc3)CC2)C1 [Navitoclax] (partner 0.5 µM)
# Procedure, shortened: as §1
# [4] = compound: C1CC(C1)(C(=O)O)C(=O)O.[NH2-].[NH2-].[Pt+2] [Carboplatin] + CC(=O)Nc1cccc(-n2c(=O)n(C3CC3)c(=O)c3c(Nc4ccc(I)cc4F)n(C)c(=O)c(C)c32)c1 [Trametinib] (partner 0.02 µM)
# Procedure, shortened: as §1
Cell Line,relative viability ([1]; first compound 0.04 µM),relative viability ([1]; first compound 0.1265 µM),relative viability ([1]; first compound 0.4 µM),relative viability ([1]; first compound 1.265 µM),relative viability ([1]; first compound 4 µM),relative viability ([2]; first compound 0.04 µM),relative viability ([2]; first compound 0.1265 µM),relative viability ([2]; first compound 0.4 µM),relative viability ([2]; first compound 1.265 µM),relative viability ([2]; first compound 4 µM),relative viability ([3]; first compound 0.04 µM),relative viability ([3]; first compound 0.1265 µM),relative viability ([3]; first compound 0.4 µM),relative viability ([3]; first compound 1.265 µM),relative viability ([3]; first compound 4 µM),relative viability ([4]; first compound 0.08 µM),relative viability ([4]; first compound 0.253 µM),relative viability ([4]; first compound 0.8 µM),relative viability ([4]; first compound 2.53 µM),relative viability ([4]; first compound 8 µM)
HCC-827,0.637,0.412,0.34,0.164,0.141,0.453,0.462,0.316,0.144,0.136,0.925,0.747,0.492,0.275,0.237,0.579,0.517,0.557,0.497,0.57
HOP-62,0.205,0.303,0.0801,0.0633,0.0555,0.393,0.335,0.134,0.0578,0.0991,0.553,0.238,0.171,0.111,0.0613,0.393,0.359,0.385,0.393,0.363
LC-2-ad,0.68,0.53,0.335,0.269,0.197,0.506,0.491,0.372,0.223,0.203,0.382,0.276,0.184,0.13,0.105,0.91,0.934,0.923,0.882,0.8
LCLC-97TM1,0.282,0.138,0.0947,0.0518,0.0597,0.417,0.314,0.288,0.108,0.137,0.277,0.281,0.139,0.134,0.109,0.236,0.216,0.212,0.228,0.26
LK-2,0.4,0.312,0.234,0.151,0.137,0.312,0.31,0.262,0.167,0.173,0.86,0.639,0.411,0.195,0.225,0.772,0.973,0.624,0.58,0.846
LOU-NH91,0.887,0.844,0.724,0.47,0.48,0.6,0.853,0.763,0.467,0.425,0.649,0.761,0.556,0.41,0.314,0.786,0.792,0.763,0.803,0.775
LU99A,0.18,0.136,0.16,0.108,0.0968,0.477,0.622,0.437,0.196,0.213,0.46,0.267,0.243,0.158,0.166,0.602,0.634,0.537,0.55,0.418
LXF-289,0.919,0.429,0.381,0.132,0.0927,0.491,0.41,0.293,0.163,0.121,0.848,0.664,0.524,0.174,0.113,0.671,0.717,0.674,0.712,0.656
NCI-H23,0.343,0.245,0.239,0.143,0.131,0.764,0.8,0.406,0.341,0.233,0.759,0.69,0.281,0.218,0.148,0.414,0.425,0.364,0.366,0.389
NCI-H322M,0.708,0.511,0.498,0.372,0.427,0.908,0.65,0.473,0.248,0.306,1.3,1.22,0.844,0.338,0.382,0.543,0.488,0.537,0.552,0.525
NCI-H441,0.567,0.426,0.296,0.143,0.169,0.79,0.554,0.333,0.211,0.227,0.708,0.489,0.357,0.138,0.173,0.556,0.448,0.479,0.467,0.371
NCI-H460,0.395,0.372,0.427,0.0925,0.0401,0.548,0.448,0.496,0.0336,0.0252,1.01,1.04,0.431,0.0395,0.024,0.161,0.139,0.155,0.0949,0.0458
NCI-H520,0.273,0.217,0.24,0.151,0.167,0.566,0.439,0.429,0.265,0.238,0.629,0.583,0.298,0.227,0.223,0.856,0.812,0.724,0.766,0.484
NCI-H596,0.815,0.626,0.436,0.595,0.557,0.751,0.914,–,0.835,0.763,0.969,0.99,0.62,0.68,0.28,0.846,0.845,0.722,0.645,0.518
NCI-H647,0.392,0.125,0.0492,0.0302,0.0464,0.367,0.348,0.118,0.0487,0.0541,0.976,0.424,0.159,0.0575,0.0744,0.533,0.483,0.413,0.469,0.457
NCI-H727,0.599,0.422,0.559,0.369,0.481,0.827,0.438,0.278,0.292,0.33,0.303,0.255,0.269,0.231,0.19,0.391,0.4,0.349,0.376,0.392

Cell Line,relative viability ([1]; first compound 0.04 µM),relative viability ([1]; first compound 0.1265 µM),relative viability ([1]; first compound 0.4 µM),relative viability ([1]; first compound 1.265 µM),relative viability ([1]; first compound 4 µM),relative viability ([2]; first compound 0.04 µM),relative viability ([2]; first compound 0.1265 µM),relative viability ([2]; first compound 0.4 µM),relative viability ([2]; first compound 1.265 µM),relative viability ([2]; first compound 4 µM),relative viability ([3]; first compound 0.04 µM),relative viability ([3]; first compound 0.1265 µM),relative viability ([3]; first compound 0.4 µM),relative viability ([3]; first compound 1.265 µM),relative viability ([3]; first compound 4 µM),relative viability ([4]; first compound 0.08 µM),relative viability ([4]; first compound 0.253 µM),relative viability ([4]; first compound 0.8 µM),relative viability ([4]; first compound 2.53 µM),relative viability ([4]; first compound 8 µM)
NCI-H838,0.434,0.243,0.197,0.124,0.136,0.538,0.319,0.263,0.127,0.128,0.831,0.307,0.211,0.16,0.196,0.558,0.519,0.536,0.515,0.541
NCI-H1355,0.688,0.516,0.525,0.306,0.186,0.42,0.407,0.352,0.218,0.235,0.982,0.847,0.657,0.268,0.302,0.45,0.438,0.474,0.403,0.367
NCI-H1395,0.415,0.426,0.367,0.339,0.364,0.447,0.499,0.481,0.382,0.357,0.981,1.19,0.651,0.407,0.375,1.05,1.03,1.01,0.742,0.618
NCI-H1437,0.582,0.499,0.409,0.253,0.153,0.325,0.337,0.388,0.258,0.195,1.03,0.906,0.571,0.347,0.143,0.487,0.518,0.452,0.463,0.5
NCI-H1650,0.609,0.616,0.34,0.175,0.166,0.398,0.339,0.231,0.146,0.198,1.02,0.739,0.438,0.156,0.176,0.623,0.585,0.573,0.522,0.389
NCI-H1651,0.176,0.182,0.176,0.138,0.0847,0.347,0.317,0.313,0.171,0.157,1.1,1.08,0.492,0.267,0.142,0.851,0.77,0.826,0.771,0.711
NCI-H1666,0.774,0.691,0.657,0.468,0.388,0.509,0.453,0.449,0.265,0.337,0.858,0.503,0.328,0.213,0.224,0.914,0.848,0.85,0.813,0.787
NCI-H1734,0.652,0.547,0.128,0.108,0.107,0.339,0.44,0.229,0.118,0.122,0.943,0.814,0.331,0.103,0.0958,0.69,0.718,0.659,0.637,0.501
NCI-H1755,0.859,0.544,0.491,0.254,0.171,0.605,0.534,0.332,0.228,0.23,0.921,0.677,0.392,0.178,0.154,0.823,0.78,0.752,0.82,0.7
NCI-H1792,0.452,0.37,0.384,0.33,0.104,0.403,0.324,0.725,0.258,0.217,0.594,0.46,0.567,0.338,0.109,0.514,0.395,0.354,0.361,0.231
NCI-H1793,0.833,0.964,0.991,0.297,0.194,0.292,0.367,0.313,0.224,0.183,0.386,0.458,0.412,0.276,0.283,0.39,0.455,0.48,0.386,0.431
NCI-H1915,0.314,0.22,0.221,0.142,0.129,0.347,0.33,0.291,0.179,0.211,0.725,0.744,0.642,0.246,0.265,0.325,0.29,0.296,0.288,0.257
NCI-H1944,0.405,0.296,0.304,0.162,0.139,0.22,0.187,0.173,0.112,0.122,1.05,0.979,0.873,0.209,0.215,0.439,0.419,0.439,0.362,0.338
NCI-H1975,0.706,0.948,0.829,0.498,0.213,0.418,0.479,0.494,0.328,0.184,1.15,1.27,1.14,0.571,0.309,0.329,0.391,0.33,0.371,0.388
NCI-H1993,0.776,0.481,0.652,0.422,0.426,0.535,0.579,0.528,0.468,0.487,0.962,0.618,0.584,0.505,0.584,0.564,0.51,0.561,0.404,0.497
